According to patent US12605449B2, “Drug-clay mineral complex containing phospholipid and oral administration composition including same” (Korea Institute of Geoscience and Mineral Resources, priority 2020, dated 2026):

Experiments:
Format in all cases: physicochemical
[1] = Camptothecin adsorption to bentonite (supernatant concentration); settings: camptothecin 0.25 mg/mL in 1 N HCl
Procedure: The concentration of camptothecin (Tokyo Chemical Industry, TCI) was made at 0.25 mg/mL using a 100% 1 N HCl solvent and the drug and bentonite reacted with each other at various ratios shown in Table 6 below, and then the drug amount adsorbed to bentonite was indirectly measured by measuring the drug concentration of the supernatant.

[2] = Ciprofloxacin adsorption to bentonite (pH and concentration dependence)
[3] = Ciprofloxacin release test using a dialysis membrane (FaSSGF, FaSSIF, FaSSCoF); settings: complex weight ratio 1:5
Description: The release pattern according to the pH of the complex was confirmed through a release test using a dialysis membrane.

[4] = Carbamazepine drug release test according to pH; settings: regardless of pH
Description: In addition, a pattern released at a constant rate at all pHs was shown, and since the release rate of carbamazepine is higher at high pH, it may be inferred that the drug may be easily released from the lower digestive tract.

CC[C@@]1(O)C(=O)OCc2c1cc1n(c2=O)Cc2cc3ccccc3nc2-1 [Camptothecin, (S)-4-ethyl-4-hydroxy-1H-pyrano-[3′,4′: 6,7]indolizinol[1,2-b]quinoline-3,14 (4H, 12H)-dione]
Supernatant concentration [1]: 49.7 ± 0.3 µg/mL

O=C(O)c1cn(C2CC2)c2cc(N3CCNCC3)c(F)cc2c1=O [ciprofloxacin, 1-cyclopropyl-6-fluoro-1,4-dihydro-4-oxo-7-(1-piperazinyl)-quinoline-3-carboxylic acid]
amount of drug adsorption per bentonite mass ([2]; bentonite 0.5 mg/mL, ciprofloxacin 50-500 μg/mL, pH 1): ≤ 300 mg/g
adsorption amount of ciprofloxacin according to pH ([2]; ciprofloxacin 0.5 mg/mL, bentonite 5 mg/mL, pH 1 to 10, decreased above pH 7): high adsorption
drug adsorption rate ([2]; weight ratio of ciprofloxacin and bentonite 1:5): ~100%
release pattern in FaSSGF, FaSSIF, FaSSCoF [3]: rapidly released under FaSSGF

NC(=O)N1c2ccccc2C=Cc2ccccc21 [Carbamazepine, 5H-dibenzo[b,f]azepine-5-carboxamide]
time within which most of the drug was released [4]: ≤ 2 h
